The text below walks through data of patent EP2545917B1, “NOVEL EP4 AGONIST” (Kaken Pharmaceutical Co., Ltd., priority 2010, dated 2011).

For series [1], the system named is dextran sodium sulfate-induced colitis. The experiment in a line: Therapeutic effect on remission/relapse model of dextran sodium sulfate-induced colitis in mice. The class given is in vivo, BALB/c mice. The conditions noted are these: SASP 100 mg/kg. From the text: Next, therapeutic effect of compound F on colitis was studied in a chronic model. Female BALB/c mice, 6 weeks old, body weight about 20 g (Japan SLC) were purchased, acclimated for 1 week and used for the study. The mice were divided into a colitis induction group and a normal group. The colitis induction group was allowed to freely drink a 2.6 w/v% DSS (MP Biochemicals, M.W. 36,000- 50,000, Lot No. 4556J) solution to induce colitis. On day 8 when the stool score (defined in Example 23) of the colitis induction group reached about 4.5, the mice were subdivided into a control group, a compound F 1 mg/kg administration group and a salazosulfapyridine (SIGMA, Lot No. 085K1930, hereinafter to be abbreviated as SASP) 100 mg/kg administration group. Then the mice were allowed to freely drink distilled water instead of DSS solution for 9 days (remission period). After the grouping, the stool score was evaluated every 3 - 4 days. When the score of the control group reached about 1, the mice were again allowed to drink the DSS solution to cause a relapse (relapse period). The periods of remission and relapse were taken as 1 cycle and the cycle was repeated 5 times. As for the 5th cycle, however, only the remission period was performed.
Compound F at a dose of 1 mg/kg and SASP at a dose of 100 mg/kg were orally administered once a day, daily, for 50 days from the initial remission period (day 8 from the start of 2.6 w/v% DSS drinking) to the fifth remission period (day 57 from the start of 2.6 w/v% DSS drinking). To the control group was orally administered a solvent (1 vol% ethanol solution) at 10 mL/kg. If a mouse had score 0 of both stool consistency score and occult blood score on the last day of each remission period, the mouse was regarded as "in remission". The remission ratio (%) was calculated as a ratio of mice in remission in each group. Eight to 10 mice were used for each group and the results are shown in average value.

Series [2] has as its system anti-Thy-1 antibody-induced glomerulonephritis. Briefly: Anti-Thy-1 antibody-induced glomerulonephritis model in rats. The series is classed as in vivo, Wistar rats. The settings on record: oral 0.3 mg/kg twice a day. The protocol: Male Slc: Wistar rats (6 weeks old, Japan SLC) were purchased, acclimated for 1 week and used for the study. Except the normal group, anti-Thy-1 antibody (mouse anti-CD90 antibody (UK-Serotech Ltd. Code:MCA47XZ, clone No: MRC OX-7, Lot No.0303)) was administered once intravenously to the animals. A mixture of compound F and compound J (F:J = 52:41, indicated as compound F/J) was orally administered from the day of the antibody administration (day 0) to day 6, daily, twice a day (morning and evening; each 0.3 mg/kg). After 3 days from the antibody administration, urine was collected for one day. On day 7 of the antibody administration, the animal was autopsied. The right kidney was isolated, weighed and fixed with formalin. Five to 8 animals were used for each group and the results were expressed as average ± standard deviation.

Series [3] relates to concanavalin A-induced hepatitis. Briefly: Prophylactic effect on concanavalin A-induced hepatitis model in mice. The series is classed as in vivo, BALB/c mice. The settings on record: oral 1 hr before Con A, compound F 1 mg/10 mL/kg, prednisolone 5 mg/10 mL/kg, 20 hr after Con A. The protocol: BALB/c mice (female, 7 weeks old, Japan SLC) were purchased, acclimated for 1 week and used for the study. Except the no-induction group, Con A (type IV, Sigma-Aldrich) dissolved in saline was administered from the tail vein of the mice at a dose of 12.5 mg/10 mL/kg to induce hepatitis. Twenty hr later, the mice were subjected to laparotomy under ether anesthesia. A 0.5 mL of blood sample was collected from the caudal vena cava and heparinized plasma was obtained to measure plasma ALT and AST activities. Test substances were compound F (1 mg/10 mL solution), prednisolone (Nacalai Tesque, 5 mg/10 mL suspension (with 0.5 w/v% methylcellulose)) and water for injection (administered to the control group), which were orally administered at a volume of 10 mL/kg 1 hr before Con A injection. Seven to 9 animals were used for each group. After logarithmic transformation of the data, one-way analysis of variance was performed for statistical evaluation.

In series [4] the test system is CD4+CD25- T cell transfer colitis. Briefly: Prophylactic effect on CD4+CD25- T cell transfer colitis model in mice. The class given is in vivo, C.B-17/Icr-scid mice. The conditions noted are these: scid mice, oral 1 mg/kg once a day for 20 days. The procedure:
Female BALB/cA Jcl mice, 6 weeks old, body weight 19 - 23 g (CLEA Japan, Inc.) and female C.B-17/Icr-scid mice (6 weeks old, CLEA Japan, Inc.) were purchased, acclimated for 1 week and used for the study. After laparotomy under ether anesthesia, BALB/cA Jcl mice were exsanguinated to death through the abdominal aorta and caudal vena cava, and the spleen was isolated. Splenocytes were prepared from the spleen and then CD4^+CD25^- T cells were prepared with a CD4^+ T cell Isolation Kit (No. 130-090-860, Milky Biotech Co., Ltd.) and CD25-Biotin antibody (No. 130-092-569, Milky Biotech Co., Ltd.). The cells were separated using the autoMACS Separator (Milky Biotech Co., Ltd.). The separated CD4^+CD25^- T cells were suspended in physiological phosphate buffer solution, and 2.5×10^5 cells per animal were intraperitoneally administered to C.B-17/Icr-scid mice to induce colitis. […] To the control group was orally administered a solvent (1 vol% ethanol solution) at 10 mL/kg. […] The fecal occult blood score was evaluated in the same manner as in Example 23. […] Eight to 10 mice were used for each group and the results were expressed as average.

Setting [5] is: mice, oral once a day, Compound F 1 mg/kg.

Regarding `O=C(O)c1cc(/N=N/c2ccc(S(=O)(=O)Nc3ccccn3)cc2)ccc1O` [SASP, salazosulfapyridine, reference compound], the “Remission Ratio Average” value in series [1] (average of 5 remission periods, Compound F 1 mg/kg) came to 40.0%. The “effect on stool score in remission and relapse periods” value in series [1] (mice, oral once a day for 50 days, compound F 1 mg/kg) was “did not show a clear effect on the stool score in either the remission period or the relapse period”. Further, in series [1] (setting [5]), the “Remission Ratio Cycle 1” value was found to be 50.0%, the “Remission Ratio Cycle 2” value stood at 50.0%, the “Remission Ratio Cycle 3” value stood at 37.5% and the “Remission Ratio Cycle 4” value turned out to be 50.0%. Besides, in series [1] (setting [5]), the “Remission Ratio Cycle 5” value was found to be 12.5%.

Consider `Cc1cccc(C(C)[C@H](O)/C=C/[C@@H]2[C@@H]3[C@H](C[C@H]2O)O/C(=C\CCCc2nnn[nH]2)C3(F)F)c1` (mixture of isomers) [compound F/J, 4-[(Z)-(1S,5R,6R,7R)-6-[(1E,3R,4RS)-3-hydroxy-4-(m-tolyl)-1-pentenyl]-7-hydroxy-2-oxa-4,4-difluoro-bicyclo[3.3.0]octan-3-ylidene]-1-(tetrazol-5-yl)butane], for which the body weight entry in series [2] is given as “a shift similar to that of the control group”. In addition, in series [2] (day 7), the relative kidney weight entry was “a value lower than control and near the normal”; the “renal histopathology: total glomerular cells, mesangial region and PCNA-positive cells in the glomerulus” value was “significantly suppressed the increase in all of these measures”. For the same compound, in series [2] (urine collected after 3 days), the 24-hr urine protein entry is on record as “a lower value than control” and the 24-hr urine volume entry is “of the same level as the normal group”.

With `C[C@]12C=CC(=O)C=C1CC[C@@H]1[C@@H]2[C@@H](O)C[C@@]2(C)[C@H]1CC[C@]2(O)C(=O)CO` [prednisolone, reference compound], in series [3], the “effect on increase of plasma ALT activity” value was “significantly and strongly suppressed the increase”; the “effect on increase of plasma AST activity” value is “significantly and strongly suppressed the increase”. In series [4], the “effect on body weight decrease score” value is listed as “clearly worsened the score” and the “effect on stool consistency score” value was “failed to show a clear effect on the stool consistency score on day 21”.
